Results from paper PMC5040747, “Preparation and Evaluation of a Novel Class of Amphiphilic Amines as Antitumor Agents and Nanocarriers for Bioactive Molecules” (Pharmaceutical Research, 2016).
Like-named read-outs stand apart in the source and are kept apart here.

Tests used:
[1] = Pilot pharmacokinetic study in mice; assay type: in vivo, mouse; settings: for AUC(0-t): read-out: AUC0-24
Procedure: To establish a standard assay for RC16 detection and the half-life of RC16 in murine blood, a basic pilot pharmacokinetic study was performed using 1 animal per timepoint. Non-tumor bearing, female, athymic nude mice were treated with RC16 by i.v. or p.o.at doses of 1 mg/kg and 2 mg/kg, respectively. At 2, 4, 6, 12, 24 and 48 h post RC16 administration, a single mouse was anesthetized in an induction chamber with 5.0% isoflurane and an O2 flow rate of 0.8 L/min. Each mouse was transferred to a nose cone supplying 5.0% isoflurane with a O2 flow rate of 0.8 L/min. After confirming sedation by testing hind footpads, each mouse was subjected to exsanguination by cardiac puncture. Blood samples were collected in BD Microtainers (BD, Franklin Lakes, NJ). Plasma was separated by centrifugation at 2000×g for 10 min at 4°C and stored at −80°C until analysis. The RC16 concentration in plasma was determined by liquid LC-MS/MS.
Chromatographic separation was achieved using a Thermo Scientific Accela UHPLC system with HTS PAL autosampler and an Agilent ZORBAX Extend C18 column (50 × 2.1 mm I.D, 3.5 μm particle size) with a C18 guard cartridge maintained at 35°C. A 6.0 min linear gradient program with water/0.3% formic acid as mobile phase A and acetonitrile/0.3% formic acid as mobile phase B at a constant flow rate of 400 μL/min was applied for elution: 0.0 min 25% B, 1.0 min 25% B, 3.0 min 95% B, 4.5 min 95% B, 4.6 min 25% B and 6.0 min 25% B. The autosampler sample draw was set to 4°C, and a divert valve was used (0.0–2.0 min) to prevent early eluting compounds from entering the MS. Selective reaction monitoring with unit resolution was used for MS detection under positive mode. Transition channels from the protonated molecular ion to selected product ion were 377.33 > 153.15 for RC16 and 251.20 > 153.15 for internal standard RC7, respectively. Parameters optimized with a direct infusion of analyte and IS using a syringe pump were as follows: spray voltage, 5000 V; sheath gas and auxiliary gas, 25 and 15 (arbitrary unit), respectively; capillary temperature, 325°C; collision gas pressure, 1.5mTorr and skimmer offset, 10 eV. Tube lens offset was 100 eV for both RC16 and RC7, respectively. Scan time was 0.03 s. Collision energies were 40 eV for RC16 and 33 eV for RC7. Thermo Scientific LCQuan software was employed for system control and data processing.

SK-N-AS = test: MTT cell proliferation assay, SK-N-AS; assay type: cell-based; settings: Homo sapiens, Neuroblastoma, read-out: Cell killing activity IC50
Procedure: (§1) Cells were plated in 96-well tissue culture plates at a density of 1 × 10^3 cells/well, allowed to attach 24 h, and then left untreated or treated with growth medium containing different concentrations of the tested RCn compounds previously dissolved in PBS. After different time periods the cell vitality was determined by MTT assay according to the manufacture’s instruction (Promega). Results are reported as the micromolar concentration of RCn reducing cell survival to 50% (IC50).

A673 = test: Intracellular ROS assay; assay type: cell-based, human; settings: A673, 5 μM RC16, 15 h
Procedure: Intracellular ROS were measured by OxiSelect™ Intracellular ROS Assay Kit (Cell Biolabs) following the manufacturer’s instructions. Briefly, cells (1 × 10^5/mL) were washed twice in PBS and incubated with 5 μM 2’,7’-dichlorodihydrofluorescein diacetate (H2DCFDA) 1 h at 37°C. After PBS washes, the medium was changed with a new one containing 5 μM RC16 for 15 h and 24 h. At the end of the treatment samples were washed with PBS and a mixture of medium and cell lysis buffer (1:1) was added for 5 min at 37°C. The fluorescence was read by a fluorimetric plate reader (Spectra max M2, Molecular Device). Excitation wavelength was 480 nm and emission wavelength was 530 nm.

[2] = system: pediatric tumor cell lines; test: MTT cell killing, pediatric tumor cell lines (summary); assay type: cell-based; settings: Table I
Procedure: as §1

SH-SY5Y cells = test: Caspase activation (western blot, fluorimetric assay); assay type: cell-based
Procedure: Cells with or without RCn treatment were washed with PBS and lysed on ice for 30 min in lysis buffer containing protease and phosphatase inhibitors. Protein concentrations were determined with the Bio-Rad protein assay kit. 50 μg of total protein was separated on 12% SDS-PAGE at 100 V for 1 h and then transferred onto a nitrocellulose membrane using a wet blotting apparatus (Bio-Rad Laboratories) at 20 V overnight. Proteins were detected by enhanced chemiluminescence detection reagents (Amersham Biosciences). The antibodies used for immunoblotting were: caspases 3, 8, 9, and PARP were diluted 1:100 in blocking reagent (Cell Signaling Technology). The exposure time was the same for all the antibodies. Blots were stripped and reprobed with anti-β-tubulin diluted 1:10,000 in blocking reagent (Santacruz Biotechnology) used as the loading control.
Detection of caspase activity was evaluated by ApoFluor Green Apoptosis Detection kits specific for: caspase-1 and caspase-4; caspase-2, caspase-3 and caspase-7; caspase-6, caspase-8, caspase-9, caspase-10, and caspase-13 (MP Biochemicals), according to the manufacturer’s instructions. […] After 1 h incubation samples were washed and analyzed by flow cytometry (FACScan, Becton Dickinson) equipped with a 15-mW argon ion laser at 488 nm ([16]).

[3] = Maximum tolerated dose in mice; settings: female, mouse, in vivo; single intravenous injection, non-tumor bearing athymic nude mice
Procedure: To determine the MTD, a standard assay dose escalation study was performed. Non-tumor bearing, female, athymic nude mice were injected once with RC16 by the tail vein starting with 0.5 mg/kg. The doses were escalated by 0.25 mg/kg until MTD was achieved. Following convention, each dose was tested on a cohort of 5 mice in individual independent experiments. MTD was defined as the highest dose that could be given resulting in no drug-related moribund state or death or body weight loss ≥ 20% in the first 7 days. Other signs of toxicity such as unusual mouse behavior, lack of movement and poor posture were also monitored. Mice were weighed and observed 3 times per week for any signs of toxicity.

[4] = system: Human Gingival Fibroblasts; test: MTT cell proliferation assay, normal fibroblasts; assay type: cell-based; settings: Fibroblast, normal cells, read-out: Cell killing activity IC50
Procedure: as §1

CCCCCCCCCCCCCCC1CN2CCCN3CCCCCC132 (stereo not drawn) [RC16, 2-tetradecyl-4,8-diazatricyclo[6.5.0.0^1,^4]tridecane]
half-life ([1]; female, athymic nude, mouse, plasma, iv, 1 mg/kg i.v., nude mice, read-out: Half-life (converted)): 5.4 h | bioavailability ([1]; female, athymic nude, mouse, plasma, po, 2 mg/kg, estimated from pilot pharmacokinetic data): ~6% | Cmax ([1]; female, athymic nude, mouse, plasma, 2 mg/kg oral, at 4 h, nude mice, read-out: Maximum observed plasma concentration (Cmax)): 12.5 ng/mL | half-life ([1]; female, athymic nude, mouse, plasma, 2 mg/kg oral, non-compartmental analysis, nude mice, read-out: Apparent half-life (converted)): 5.2 h | AUC(0-t) ([1]; female, athymic nude, mouse, plasma, IV, 1 mg/kg, nude mice): 1390 ng·h/mL | Cmax ([1]; female, athymic nude, mouse, plasma, IV, 1 mg/kg, nude mice, read-out: Cmax): 153 ng/mL | AUC(0-t) ([1]; female, athymic nude, mouse, plasma, PO, 2 mg/kg, nude mice): 160 ng·h/mL | concentration at 2 h ([1]; female, athymic nude, plasma, intravenous, 1 mg/kg i.v., 2 h, nude mice, 1 mouse per time point): 153 ng/mL | concentration at 24 h ([1]; female, athymic nude, plasma, intravenous, 1 mg/kg i.v., nude mice, 1 mouse per time point): 11.4 ng/mL | concentration at 24 h ([1]; female, athymic nude, plasma, 2 mg/kg oral, nude mice, 1 mouse per time point): 0.5 ng/mL | concentration at 48 h ([1]; female, athymic nude, plasma, 2 mg/kg oral, 48 h, nude mice, 1 mouse per time point): 4.6 ng/mL | Achieved plasma concentrations ([1]; i.v. dose of 1 mg/kg): 150 to 200 ng/mL | IC50 (SK-N-AS; 24 h): 0.88 µM | IC50 (SK-N-AS; 48 h): 0.67 µM | Intracellular ROS levels relative to control (A673): more than twice the control values | Cell killing (qualitative) [2]: most active | Caspase activation, fluorimetric assay (caspases 1, 2, 3, 6, 8, 9, 10, 13) (SH-SY5Y cells; 5 μM RC16, 1-24 h): all the above caspases were activated already at 4 h | Caspase activation, western blot (SH-SY5Y cells; 5 μM RC16, 2-36 h): activation of caspases 3, 8 and 9 | MTD at 7 days [3]: 4 mg/kg | IC50 ([4]; 24 h): 11.8 µM | IC50 ([4]; 48 h): 10.5 µM
